# Experimental data taken from US6358885B1, “Substituted phenylheterocyclic herbicides” (Mississippi State University, priority 1992, dated 2002).
# Tests used:
# Experiment in all cases: Test G preemergence/postemergence greenhouse plant response rating 0 to 100
# [1] = test system: bermudagrass; assay type: in vivo, Cynodon dactylon; details: 0 to 100 scale
# Method in brief: (§1)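 Scoring: visual injury at 13 to 21 days post-application, compared with untreated controls. Planting: one species per pot in greenhouse medium. Dosing: compound in non-phytotoxic solvent, within one day of sowing for preemergence or at 2–4 leaves for postemergence.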
# [2] = test system: guineagrass; assay type: in vivo, Panicum maximum; details: 0 to 100 scale
# Method in brief: as §1
# [3] = test system: alfalfa; assay type: in vivo, Medicago ativa; details: 0 to 100 scale
# Method in brief: as §1
# [4] = test system: purple nutsedge; assay type: in vivo, Cyperus rotundus; details: Rate 125 g/ha, 0 to 100 scale
# Method in brief: as §1
# [5] = test system: large crabgrass; assay type: in vivo, Digitaria sanguinalis; details: 0 to 100 scale
# Method in brief: as §1
# [6] = test system: peanut; assay type: in vivo, Arachis hypoagaea; details: 0 to 100 scale
# Method in brief: as §1
# [7] = test system: common purslane; assay type: in vivo, Portulaca oleracea; details: 0 to 100 scale
# Method in brief: as §1
# [8] = test system: johnsongrass; assay type: in vivo, Sorghum halepense; details: 0 to 100 scale
# Method in brief: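 Visual injury scores, taken 13–21 d after spraying and judged against untreated pots; dash = not tested. Single-species greenhouse pots; test chemical dissolved in non-phytotoxic solvent. Pre: applied ≤1 d post-planting.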
# [9] = test system: goosegrass; assay type: in vivo, Eleusine indica; details: 0 to 100 scale
# Method in brief: as §1
# [10] = test system: annual bluegrass; assay type: in vivo, Poa annua; details: 0 to 100 scale
# Method in brief: as §1
# [11] = test system: itchgrass; assay type: in vivo, Rottboellia exaltata; details: 0 to 100 scale
# Method in brief: as §1
# [12] = test system: dallisgrass; assay type: in vivo, Paspalum dilatatum; details: 0 to 100 scale
# Method in brief: as §1
# [13] = test system: broadleaf signalgrass; assay type: in vivo, Brachiaria plantaginea; details: 0 to 100 scale
# Method in brief: as §1
# [14] = test system: smooth crabgrass; assay type: in vivo, Digitaria ischaemum; details: 0 to 100 scale
# Method in brief: as §1
# [15] = test system: yellow nutsedge; assay type: in vivo, Cyperus esculentus; details: Rate 125 g/ha, 0 to 100 scale
# Method in brief: as §1
# [16] = test system: common ragweed; assay type: in vivo, Ambrosia elatior; details: 0 to 100 scale
# Method in brief: as §1
# [17] = test system: pitted morningglory; assay type: in vivo, Ipomoea lacunosa; details: 0 to 100 scale
# Method in brief: as §1
compound,measurement,setting,value
CCCN1C(=O)COc2cc(F)c(-c3nn4c(c3Cl)CCCC4)cc21 [Compound 32],"Plant response rating, Bermudagrass","[1]; POSTEMERGENCE, Rate 125 g/ha",0
same,"Plant response rating, Bermudagrass","[1]; POSTEMERGENCE, Rate 250 g/ha",0
same,"Plant response rating, Bermudagrass","[1]; PREEMERGENCE, Rate 125 g/ha",0
same,"Plant response rating, Bermudagrass","[1]; PREEMERGENCE, Rate 250 g/ha",0
same,"Plant response rating, Guineagrass","[2]; POSTEMERGENCE, Rate 125 g/ha",0
same,"Plant response rating, Guineagrass","[2]; POSTEMERGENCE, Rate 250 g/ha",0
same,"Plant response rating, Guineagrass","[2]; PREEMERGENCE, Rate 125 g/ha",0
same,"Plant response rating, Guineagrass","[2]; PREEMERGENCE, Rate 250 g/ha",0
same,"Plant response rating, Alfalfa Var.","[3]; POSTEMERGENCE, Rate 125 g/ha",0
same,"Plant response rating, Alfalfa Var.","[3]; POSTEMERGENCE, Rate 250 g/ha",0
same,"Plant response rating, Alfalfa Var.","[3]; PREEMERGENCE, Rate 125 g/ha",0
same,"Plant response rating, Alfalfa Var.","[3]; PREEMERGENCE, Rate 250 g/ha",0
same,"Plant response rating, Purple Nutsedge",[4]; POSTEMERGENCE,10
same,"Plant response rating, Purple Nutsedge",[4]; PREEMERGENCE,0
same,"Plant response rating, Large Crabgrass","[5]; POSTEMERGENCE, Rate 125 g/ha",0
same,"Plant response rating, Large Crabgrass","[5]; POSTEMERGENCE, Rate 250 g/ha",0
same,"Plant response rating, Large Crabgrass","[5]; PREEMERGENCE, Rate 125 g/ha",0
same,"Plant response rating, Large Crabgrass","[5]; PREEMERGENCE, Rate 250 g/ha",0
same,"Plant response rating, Peanuts","[6]; POSTEMERGENCE, Rate 125 g/ha",0
same,"Plant response rating, Peanuts","[6]; POSTEMERGENCE, Rate 250 g/ha",0
same,"Plant response rating, Peanuts","[6]; PREEMERGENCE, Rate 125 g/ha",0
same,"Plant response rating, Peanuts","[6]; PREEMERGENCE, Rate 250 g/ha",0
same,"Plant response rating, Cmn Purslane","[7]; POSTEMERGENCE, Rate 125 g/ha",100
same,"Plant response rating, Cmn Purslane","[7]; POSTEMERGENCE, Rate 250 g/ha",80
same,"Plant response rating, Cmn Purslane","[7]; PREEMERGENCE, Rate 125 g/ha",0
same,"Plant response rating, Cmn Purslane","[7]; PREEMERGENCE, Rate 250 g/ha",100
same,"Plant response rating, Johnsongrass","[8]; POSTEMERGENCE, Rate 125 g/ha",0
same,"Plant response rating, Johnsongrass","[8]; POSTEMERGENCE, Rate 250 g/ha",0
same,"Plant response rating, Johnsongrass","[8]; PREEMERGENCE, Rate 125 g/ha",0
same,"Plant response rating, Johnsongrass","[8]; PREEMERGENCE, Rate 250 g/ha",0
same,"Plant response rating, Goosegrass","[9]; POSTEMERGENCE, Rate 125 g/ha",0
same,"Plant response rating, Goosegrass","[9]; POSTEMERGENCE, Rate 250 g/ha",0
same,"Plant response rating, Goosegrass","[9]; PREEMERGENCE, Rate 125 g/ha",0
same,"Plant response rating, Goosegrass","[9]; PREEMERGENCE, Rate 250 g/ha",0
same,"Plant response rating, Ann Bluegrass","[10]; POSTEMERGENCE, Rate 125 g/ha",0
same,"Plant response rating, Ann Bluegrass","[10]; POSTEMERGENCE, Rate 250 g/ha",0
same,"Plant response rating, Ann Bluegrass","[10]; PREEMERGENCE, Rate 125 g/ha",0
same,"Plant response rating, Ann Bluegrass","[10]; PREEMERGENCE, Rate 250 g/ha",0
same,"Plant response rating, Itchgrass","[11]; POSTEMERGENCE, Rate 125 g/ha",0
same,"Plant response rating, Itchgrass","[11]; POSTEMERGENCE, Rate 250 g/ha",0
same,"Plant response rating, Itchgrass","[11]; PREEMERGENCE, Rate 125 g/ha",0
same,"Plant response rating, Itchgrass","[11]; PREEMERGENCE, Rate 250 g/ha",0
same,"Plant response rating, Dallisgrass","[12]; POSTEMERGENCE, Rate 125 g/ha",0
same,"Plant response rating, Dallisgrass","[12]; POSTEMERGENCE, Rate 250 g/ha",0
same,"Plant response rating, Dallisgrass","[12]; PREEMERGENCE, Rate 125 g/ha",0
same,"Plant response rating, Dallisgrass","[12]; PREEMERGENCE, Rate 250 g/ha",0
same,"Plant response rating, Brdlf Sgnlgrass","[13]; POSTEMERGENCE, Rate 125 g/ha",0
same,"Plant response rating, Brdlf Sgnlgrass","[13]; POSTEMERGENCE, Rate 250 g/ha",0
same,"Plant response rating, Brdlf Sgnlgrass","[13]; PREEMERGENCE, Rate 125 g/ha",0
same,"Plant response rating, Brdlf Sgnlgrass","[13]; PREEMERGENCE, Rate 250 g/ha",0
same,"Plant response rating, Smooth Crabgras","[14]; POSTEMERGENCE, Rate 125 g/ha",0
same,"Plant response rating, Smooth Crabgras","[14]; POSTEMERGENCE, Rate 250 g/ha",0
same,"Plant response rating, Smooth Crabgras","[14]; PREEMERGENCE, Rate 125 g/ha",0
same,"Plant response rating, Smooth Crabgras","[14]; PREEMERGENCE, Rate 250 g/ha",0
same,"Plant response rating, Yellow Nutsedge",[15]; POSTEMERGENCE,0
same,"Plant response rating, Yellow Nutsedge",[15]; PREEMERGENCE,0
same,"Plant response rating, Cmn Ragweed","[16]; POSTEMERGENCE, Rate 125 g/ha",100
same,"Plant response rating, Cmn Ragweed","[16]; POSTEMERGENCE, Rate 250 g/ha",60
same,"Plant response rating, Cmn Ragweed","[16]; PREEMERGENCE, Rate 125 g/ha",0
same,"Plant response rating, Cmn Ragweed","[16]; PREEMERGENCE, Rate 250 g/ha",0
same,"Plant response rating, Pit Morninglory","[17]; POSTEMERGENCE, Rate 125 g/ha",70
same,"Plant response rating, Pit Morninglory","[17]; POSTEMERGENCE, Rate 250 g/ha",30
same,"Plant response rating, Pit Morninglory","[17]; PREEMERGENCE, Rate 125 g/ha",0
same,"Plant response rating, Pit Morninglory","[17]; PREEMERGENCE, Rate 250 g/ha",0
